We go through one molecule from patent US20230114143A1, “METHOD OF TREATING THE SCALP” (Conopco, Inc., d/b/a UNILEVER, priority 2020, published 2023).

Molecules are shown by their SMILES. Where a name gives a salt, the structure may show the parent alone.

For test [1], the system named is ex vivo human skin explants. Kind of test: RNA sequencing gene expression in NativeSkin ex vivo human skin explants treated topically with piroctone olamine. The format is cell-based. The settings on record: 24 hours. The method, then:
Human ex vivo skin model production and piroctone olamine treatment were conducted by Genoskin (France). NativeSkin models of 15 mm diameter ex vivo human skin explants with silicon rings were produced from three donors and cultured in NativeSkin culture medium under 5% CO2 humidified atmosphere in 37° C. Skin explants were treated topically with 50 ul of solution containing 30 uM piroctone olamine in PBS with 1% ethanol (Group 1, n=3), or control PBS solution containing 1% ethanol (Group 2, n=3), and were incubated for 24 hours. Following one day of topical treatment, piroctone olamine and control solutions were removed using cotton swabs and each model was unmolded from silicon ring and re-punch at 12 mm diameter. Half of each skin biopsy was processed for RNA using OMNI-TH Rotor Stator tissue homogeniser and Qiagen RNeasy Fibrous Tissue RNA Mini Kit according to manufacturer’s instructions. RNA sequencing was used for gene expression analysis. Lexogen QuantSeq3′ FWD libraries were prepared from RNA samples and sequenced via single read (1x75 bp) performed using NextSeq 500/550 Mid-Output Kit on the NextSeq 500 Illumina platform. FASTQ data files were then uploaded to the BlueBee genomic platform and read-trimming, alignment, and read count were performed using QuantSeq data processing pipeline. Differential gene expression analysis for Group 1/Group 2 comparison was run in Bluebee genomic platform using QuantSeq DE pipeline (FDR corrected p≤0.05).

Test [2] deals with differentiated keratinocytes. Kind of test: Microarray gene expression in differentiated primary human epidermal keratinocytes dosed with piroctone olamine. The format is cell-based. The settings on record: 7.5 µM, 24 hours. Here is the method: Primary human epidermal keratinocytes were obtained from Lonza. Cells were cultured in monolayer in KGM-Gold medium. For the experiment keratinocytes were differentiated by incubating for five days in KGM-Gold medium supplemented with 1.2 mM calcium chloride. Piroctone olamine was supplied by Sigma. Differentiated keratinocyte cultures were dosed with 7.5 µM piroctone olamine and 0.1% ethanol (Group 1, n=4), or with 0.1% ethanol only (Group 2, n=4) and incubated for 24 hours. Cells were then lysed in RLT buffer and subjected to RNA extraction using Qiagen RNeasy Micro Kit according to manufacturer’s instructions. The levels of gene expression were determined using Agilent SurePrint G3 Human Gene Expression 8x60k v3 Microarrays in conjunction with Agilent SureHyb hybridisation and SureScan High-Resolution scanning technology, in accordance with manufacturer’s protocol. Microarray data processing and statistical analysis was carried out in Agilent GeneSpring GX14 software. To identify differentially expressed genes in piroctone olamine treated cultures (Group 1) compared to vehicle control cultures (Group 2), t-test was applied (p≤0.05) with or without Benjamini-Hochberg false discovery rate correction (FDR≤0.05).

[3] abbreviates: 30 uM topical in PBS with 1% ethanol, vs control, Tight junction formation.
Where [4] appears, read: vs 0.1% ethanol control, Comeodesmosome formation.
Where [5] appears, read: vs 0.1% ethanol control, Cornified envelop formation.
[6] abbreviates: vs 0.1% ethanol control, Tight junction formation.

`Cc1cc(CC(C)CC(C)(C)C)n(O)c(=O)c1` (stereo not shown) [piroctone olamine, 1-hydroxy-4-methyl-6-(2,4,4-trimethylpentyl)-2(1H) pyridinone monoethanolamine salt]: the “Fold Change (Group 1/Group 2) gene expression, Involucrin (IVL)” value in test [1] (30 uM topical in PBS with 1% ethanol, vs control, Cornified envelop formation) is 2.7. Further, in test [1] (setting [3]), the “Fold Change (Group 1/Group 2) gene expression, Claudin 1 (CLDN 1)” value was found to be 2.1 and the “Fold Change (Group 1/Group 2) gene expression, Zona Occludens 2 (ZO2 (TJP2))” value was 3.5. Besides, in test [1] (30 uM topical, human skin explants), the “gene expression of epidermal barrier biomarkers compared to control (in words)” value is recorded as “increase in gene expression”. Also, the “gene expression of epidermal barrier biomarkers compared to control (in words)” value in test [2] (differentiated keratinocytes) is reported as “clear increase in gene expression”. Besides, in test [2] (setting [4]), the “Fold Change (Group ⅟Group 2) gene expression, Desmocolin 2 (DSC2)” value stood at 2.49; the “Fold Change (Group ⅟Group 2) gene expression, Desmoglein 4 (DSG4)” value is reported as 2.44; the “Fold Change (Group ⅟Group 2) gene expression, Plakophilin 1 (PKP1)” value is 1.75. For the same molecule, the “Fold Change (Group ⅟Group 2) gene expression, Comeodesmosin (CDSN)” value in test [2] (vs 0.1% ethanol control, Comeodesmosome formation, not significant) is reported as 1.20. Besides, in test [2] (setting [5]), the “Fold Change (Group ⅟Group 2) gene expression, Involucrin (IVL)” value is 1.40; the “Fold Change (Group ⅟Group 2) gene expression, Late cornified envelope 3A (LCE3A)” value is 2.58; the “Fold Change (Group ⅟Group 2) gene expression, Late cornified envelope 3B (LCE3B)” value worked out at 1.67; the “Fold Change (Group ⅟Group 2) gene expression, Late cornified envelope 3C (LCE3C)” value turned out to be 2.71. Besides, in test [2] (setting [5]), the “Fold Change (Group ⅟Group 2) gene expression, Small proline-rich protein 2D (SPRR2D)” value turned out to be 1.52. In test [2] (setting [6]), the “Fold Change (Group ⅟Group 2) gene expression, Claudin 4 (CLDN4)” value is on record as 1.76; the “Fold Change (Group ⅟Group 2) gene expression, Claudin 7 (CLDN7)” value turned out to be 1.65; the “Fold Change (Group ⅟Group 2) gene expression, Claudin 17 (CLDN17)” value came out at 2.99; the “Fold Change (Group ⅟Group 2) gene expression, Claudin 25 (CLDN25)” value was found to be 2.05. Moreover, the “Fold Change (Group ⅟Group 2) gene expression, Zona Occludens 1 (ZO1 (TJP1))” value in test [2] (vs 0.1% ethanol control, Tight junction formation, not significant) was found to be 1.3.
